Measured values published in patent publication EP4489718B1, “METHOD FOR ENCAPSULATING A HYDROPHOBIC COMPOUND, SUSPENSION OF STRUCTURED LIPID PARTICLES ACCORDING TO THIS METHOD, AND USES OF SAID SUSPENSION” (SEDERMA, priority 2022, dated 2023).
Where two headings read alike, the source gives them in different places.

Columns and labels:
physchem = assay type: physicochemical
From the text: The Franz diffusion cell is the device most used to examine the release profiles of an active ingredient encapsulated in the capsules according to the invention. […] The product to be tested is placed in the upper chamber while the lower chamber collects the recipient fluid which has passed through the membrane. The rate and mechanism of release can be obtained by mathematical modelling. The rate can be calculated using the following first-order equation: […] And the release mechanism can be obtained using the Korsmeyer-Peppas model equation: Mt/M∞ = […] [formula] In which: • t is the release time • Mt is the quantity of released active at t time • M∞ is the total quantity of released active • Mt/M∞ being the fraction of released active at t time; • k is a kinetic constant, a measure of the release rate; and • n the diffusional exponent which gives an indication of the release mechanism of the active and takes on different values depending on the geometry of the release device. […] Selected membrane: […] Eight Franz cells containing the release medium and the membrane were prepared and placed in a temperature-controlled water bath of 32°C. […] The amount added to the membrane was 20% of the saturation concentration to ensure flow conditions. Samples were taken at selected intervals of 0.5 to 76 h with replacement of fresh medium. All samples collected were analysed for retinol content by HPLC on the day of the experiment. […] The mean of the four cells in both cases was plotted against time and used to apply the mathematical models. […] The release mechanism was obtained by the Korsmeyer-Peppas equation.

[1] = Stability study on storage (retinol content by HPLC, colour, pH, particle size); assay type: physicochemical
Experimental: Samples were diluted in isopropanol. […] A calibration curve was performed. For an accelerated stability study, suspension samples according to the invention were stored for 365 days at room temperature (RT), 180 days at 40°C, 90 days at 5°C and 60 days at 50°C. The long-term stability study was evaluated at RT. Samples were analysed for characterization parameters at test times 0, 7, 14, 21, 30, 60, and 90, 180 and 365 days, depending on each storage condition. At each analysis time, a new bottle was opened for the first time. To assess the impact of product handling during stability, an additional bottle of each sample was stored at RT. This same bottle was opened and handled under an air atmosphere at each analysis time (7, 14, 21, 30, 60 and 90 days for all samples for RT) and the results were compared to the cases of the bottles newly opened for each analysis. All samples were handled without direct contact with light and under normal air conditions. No inert gas was used either to fill the bottles or to handle any sample.

[2] = assay type: physicochemical
Experimental: Aim: to study whether the encapsulated retinol according to the invention supported UV irradiation and to compare with the non-encapsulated free retinol (solubilized in soybean oil).
Protocol: two samples, one containing free retinol and the other encapsulated retinol, were irradiated for 1 hour at about 40cm from the bulb of the solar lamp.
Retinol assay: by HPLC (UV detection at 325nm), the samples having been solubilized and diluted in isopropyl alcohol and the quantification having been carried out using a standard curve ranging from 2 to 150 ppm of retinol.

CC1=C(/C=C/C(C)=C/C=C/C(C)=C/CO)C(C)(C)CCC1 [Free retinol, retinol]
retinol degradation peaks in the chromatograms of the release samples (physchem): degradation peaks from 10h
half-life (physchem; 3% tween 80 in water): 2.03 h
release rate (physchem; Franz cell, PVDF 0.1 µm membrane, 3% Tween 80 / 97% water, 32°C, first-order model): 0.00089 min⁻¹
Retinol content in w/w % ([1]; storage 5°C, 0 days, suspension: new bottle for each test): 3.11 w/w %
Retinol content in w/w % ([1]; storage 5°C, 7 days, suspension: new bottle for each test): 3.14 w/w %
Retinol content in w/w % ([1]; storage 5°C, 14 days): 2.77 w/w %
Retinol content in w/w % ([1]; storage 5°C, 21 days): 0.42 w/w %
Retinol content in w/w % ([1]; storage 5°C, 30 days, suspension: new bottle for each test): 0.0 w/w %
Retinol content in w/w % ([1]; storage 40°C, 0 days, suspension: new bottle for each test): 3.11 w/w %
Retinol content in w/w % ([1]; storage 40°C, 7 days, suspension: new bottle for each test): 2.79 w/w %
Retinol content in w/w % ([1]; storage 40°C, 14 days): 0.89 w/w %
Retinol content in w/w % ([1]; storage 40°C, 21 days): 0.0 w/w %
Retinol content in w/w % ([1]; storage 40°C, 30 days, suspension: new bottle for each test): 0.0 w/w %
Retinol content in w/w % ([1]; storage 50°C, 0 days, suspension: new bottle for each test): 3.11 w/w %
Retinol content in w/w % ([1]; storage 50°C, 7 days, suspension: new bottle for each test): 2.51 w/w %
Retinol content in w/w % ([1]; storage 50°C, 14 days, suspension: new bottle for each test): 0.10 w/w %
Retinol content in w/w % ([1]; storage 50°C, 21 days, suspension: new bottle for each test): 0.0 w/w %
Retinol content in w/w % ([1]; storage 50°C, 30 days, suspension: new bottle for each test): 0.0 w/w %
Retinol content in w/w % ([1]; storage RT, 0 days, suspension: new bottle for each test): 3.11 w/w %
Retinol content in w/w % ([1]; storage RT, 7 days, suspension: new bottle for each test): 2.76 w/w %
Retinol content in w/w % ([1]; storage RT, 14 days, suspension: new bottle for each test): 2.40 w/w %
Retinol content in w/w % ([1]; storage RT, 21 days, suspension: new bottle for each test): 0.23 w/w %
Retinol content in w/w % ([1]; storage RT, 30 days, suspension: new bottle for each test): 0.25 w/w %
Actual content of retinol (in weight %) ([2]; After 1h of irradiation, about 40cm from solar lamp): 5.72 +/- 0.07 weight %
Actual content of retinol (in weight %) ([2]; Control (not irradiated)): 10.49 +/- 0.34 weight %
